From the OPERA property sets (Mansouri et al. 2018) come the findings set out here.

Conditions in one data set: not given
As to `O=C(O)c1cccc(-c2ccccc2)c1O`, the melting point was 186 °C. Regarding `Cc1cccc(-c2ccccc2C)c1`, the boiling point was determined as 270 °C.

Regarding `CC(C)(O)CC(C)(O)c1ccc(Cl)cc1` (centres undefined), the melting point worked out at 76.5 °C. With `COCc1ccccc1`, the boiling point came out at 170 °C, the log10 vapour pressure (mmHg) turned out to be 0.22 and the melting point is -52.6 °C. Compound `CCCCCSC` had a boiling point of 145 °C and a melting point of -94 °C. `CCc1ccccc1-c1ccccc1CC`: the ready biodegradability result is “not readily biodegradable”. Consider `CN1C2CCC1CC(=O)C2`, for which the boiling point turned out to be 227 °C and the melting point amounted to 43 °C. Consider `Cc1ccccc1Cc1ccccc1`, for which the boiling point is 280 °C and the melting point is 6.6 °C. With `CN(C)c1ccc(Cl)cc1`, the boiling point was found to be 231 °C and the melting point was 35.5 °C.

For `[N-]=[N+]=Nc1ccc(Br)cc1`, the melting point amounted to 20 °C. Consider `COc1cc(OC)c2ccc(=O)oc2c1`, for which the melting point is 149 °C.

With `Cc1cc(C)cc(Br)c1`, the boiling point stood at 204 °C. With `Nc1ccc(C(=O)Oc2ccccc2)c(O)c1`, the melting point came to 153 °C. With `CN(C)c1ccccc1N(C)C`, the boiling point stood at 216 °C and the melting point is 8.9 °C.

As for `CC(CN(C)C)CN1c2ccccc2Sc2ccccc21` (centres undefined), the melting point was found to be 68 °C. Take `CCC(O)CCC(F)(F)F` (centres undefined): the boiling point turned out to be 141 °C. For `C[C@H](O)[C@H](O)[C@@H](O)[C@@H](O)C=O`, the melting point was 135 °C. In the case of `Cc1cccc(Cl)c1O`, the boiling point worked out at 189 °C.

Regarding `CC(C)[C@H]1CC[C@]2(C)C[C@H](O)[C@]3(C)CC[C@]12O3`, the melting point was determined as 114 °C. With `O=C(OC[C@H]1O[C@@H](Oc2ccccc2CO)[C@H](O)[C@@H](O)[C@@H]1O)c1ccccc1`, the melting point stood at 180 °C. The compound `CC(CN(C)C)CN1c2ccccc2CCc2ccccc21` (centres undefined) showed a melting point of 45 °C. `C#CC(C)O` (centres undefined) came in with a boiling point of 106 °C and a melting point of -3 °C. `CCC(C)=CCl` registered a boiling point of 96.5 °C. Compound `C1=CCOC1` displayed a boiling point of 66.5 °C and a log10 vapour pressure (mmHg) of 2.2. `CN(C)C(=O)COC(=O)c1ccccc1` had a melting point of 81.5 °C. Take `N[C@@H](CCC(=O)N[C@@H](CS)C(=O)NCC(=O)O)C(=O)O`: the melting point came to 195 °C. Regarding `CCOC(=O)c1cccc(O)c1`, the melting point came out at 74 °C and the ready biodegradability result is listed as “readily biodegradable”.

Consider `O=C1OC(c2ccc(O)cc2)(c2ccc(O)cc2)c2ccccc21`, for which the melting point stood at 262 °C and the ready biodegradability result is given as “not readily biodegradable”.

With `CNC(=O)c1cccnc1`, the melting point came out at 104 °C. Regarding `Cc1cc(Cl)c2ccccc2n1`, the boiling point is 270 °C and the melting point stood at 42.5 °C. For the compound `COc1cccc2cccnc12`, the boiling point was 283 °C and the melting point came to 49.5 °C. Compound `CCOC(=O)COc1cccc2ccccc12` showed a melting point of 56.5 °C. The compound `O=[N+]([O-])CCCl` came in with a boiling point of 174 °C. In turn, `CCC(C)OC(C)CC` (centres undefined) gave a log10 vapour pressure (mmHg) of 1.21 and a melting point of -100 °C. `Clc1ccc(-c2ccc(Cl)c(Cl)c2Cl)cc1Cl` had a log10 Koa of 10 and a log10 vapour pressure (mmHg) of -5.18. Take `FC(F)C(F)(F)Cl`: the boiling point is -10 °C and the melting point is -117 °C. For the compound `C[C@]12CC[C@@H]3c4ccc(O)cc4CC[C@H]3[C@@H]1CCC2=O`, the melting point was determined as 260 °C. Regarding `Brc1cccc(Oc2ccccc2)c1`, the log10 Koa worked out at 7.36. In turn, `O=[N+]([O-])c1c(Cl)ncnc1Cl` came in with a melting point of 102 °C. `Clc1ccccc1-c1cc(Cl)c(Cl)c(Cl)c1Cl` yielded a log10 vapour pressure (mmHg) of -4.16. Regarding `Cc1cc(C)cc(C(=O)O)c1`, the melting point stood at 171 °C.

The same data set, now with this note: fish.
`Clc1ccc(-c2ccc(Cl)c(Cl)c2Cl)cc1Cl` showed a log10 biotransformation half-life (days) of 2.06.

`Clc1ccc(-c2c(Cl)cc(Cl)c(Cl)c2Cl)cc1` gave a log10 biotransformation half-life (days) of 1.84.

In general, melting point refers to the temperature, or range, at which the solid turns liquid. As a reminder, the boiling point is the temperature of boiling at a given pressure.
